{"source": "patent US20130224294A1", "about": "“DRY PROCESSING OF ATAZANAVIR” (priority 2010, published 2013)", "origin": "cited, not measured here", "key": {"[1]": {"conditions": "at 24±3° C.; base formed by dissociation of the salt in the presence of water"}, "[2]": {"conditions": "free base"}}}
{"molecule": "COC(=O)N[C@H](C(=O)N[C@@H](Cc1ccccc1)[C@@H](O)CN(Cc1ccc(-c2ccccn2)cc1)NC(=O)[C@@H](NC(=O)OC)C(C)(C)C)C(C)(C)C", "note": "[Atazanavir]", "values": [{"measurement": "BCS class (high permeability/low solubility)", "value": "BCS II"}, {"measurement": "solubility", "setting": "[1]", "value": "< 1", "unit": "µg/mL"}, {"measurement": "bioavailability", "setting": "[2]", "value": "does not have sufficient bioavailability"}]}
